# Laboratory results from patent US20240382590A1, “NOVEL TUMOR-SPECIFIC ANTIGENS FOR CANCER STEM CELLS AND USES THEREOF” (UNIVERSITÉ DE MONTRÉAL, priority 2021, published 2024).
# “Also recorded” adds a separate entry of the source.
# How the values were obtained:
# CD8+ T cells [1] = assay: FEST assay (functional expansion of specific T cells, TCR Vβ CDR3 sequencing); format: cell-based, human; conditions: for Number of TCRβ clonotypes specifically expanded: FEST assay, donor D12, stimulation with a single peptide or a pool; for TCRß clonotype (TCRß CDR3 sequence) amplified: Table 3B, in vitro stimulation with peptide alone or pool, donor D12
# Procedure: In vitro peptide-specific T cell expansion. Peptide-specific CD8^+ T cells from 4 healthy donors were expanded in vitro (D11, D12, D13, and D14). The expanded cells from D12 were used for FEST and tetramer staining assays, whereas the expanded cells from D11, D13, and D14 were used only for tetramer staining assays.
# T cells were cultured as previously described, with minor modifications (Danilova et al., 2018). Briefly, on day 0, thawed PBMCs from each healthy donor (BioIVT) were T cell-enriched using the Human Pan T cell isolation kit (Miltenyi Biotec). T cells were resuspended at 2×10^6/mL in AIM V media supplemented with 50 μg/mL gentamicin (ThermoFisher Scientific) and 1% HEPES. The T cell-negative fraction was irradiated at 30 Gy, washed, and resuspended at 2×10^6/mL in AIM V media supplemented with 50 μg/mL gentamicin and 1% HEPES. 2.5 ml per well of both T cells and irradiated T cell-depleted cells were added to a 6-well plate, along with either a peptide alone, a peptide pool (up to 6 MAPs per pool, 1 μg/mL final concentration for each MAP) or without peptide. Cells were cultured for 10 days at 37° C., 5% CO2. On day 3 and 7, half the culture media was replaced with fresh culture media containing 100 IU/mL IL-2, 50 ng/mL IL-7, and 50 ng/mL IL-15 (day 3) and 200 IU/mL IL-2, 50 ng/mL IL-7, and 50 ng/mL IL-15 (day 7). On day 10, thawed PBMCs from the same donor were used to generate a new batch of T cell-depleted cells. These cells were irradiated at 30 Gy and added to cultures at a 1:1 T cell:non-T cell ratio, along with 1 μg/mL of relevant peptide(s) or without peptide. On day 13 and 17, at least half the culture media was replaced with fresh culture media (final concentrations: 100 IU/mL IL-2, 25 ng/mL IL-7, and 25 ng/mL IL-15). On day 20, cells were harvested to perform tetramer staining and/or FEST assays.
# FEST assays. For FEST assays, CD8^+ cells were further isolated using the Human CD8^+ T Cell Isolation Kit (Miltenyi Biotec). As a negative control, CD8^+ T cells were also isolated from freshly thawed uncultured PBMCs of the same healthy donor. DNA was extracted from CD8^+ T cells using a QIAGEN DNA blood mini kit (QIAGEN). TCR Vβ CDR3 sequencing was performed using the survey resolution of the immunoSEQ platform (Adaptive Biotechnologies). Raw data exported from the immunoSEQ portal were processed with the FEST web tool (www.stat-apps.onc.jhmi.edu/FEST).
# Given that paMAPs are appealing targets for immunotherapy, their immunogenicity was tested using in vitro T cell assays with peripheral blood mononuclear cells (PBMCs) from healthy donors. paMAPs were prioritized based on four criteria: i) the immunogenicity score predicted by Repitope, a machine learning algorithm that uses public T-cell receptor (TCR) databases to predict a probability of T cell response (Ogishi and Yotsuyanagi, 2019), ii) the HLA allotype presenting the paMAP (HLAA*02:01 or HLA-B*53:01 shared by the iPSCs and PBMCs donors), iii) expression in minimum 10% of the samples in at least one TOGA cancer type (FIG. 3), and iv) novel MAP status. The […] T cell response against 11 paMAPs was tested using peptide-HLA tetramer staining and/or more sensitive functional expansion of specific T cells (FEST) assays (Danilova et al., 2018). In FEST assays, TCR sequencing is performed on T cells stimulated or not with synthetic paMAPs. T cells were stimulated in vitro with autologous T cell-depleted PBMCs pulsed with individual or pooled (n=5 or 6) paMAPs (Tables 3A-B).
# CD8+ T cells [2] = assay: Peptide-HLA tetramer staining after in vitro peptide-specific T cell expansion; format: cell-based, human; conditions: healthy donor PBMCs after 20 days in vitro stimulation
# Procedure: T cells were resuspended at 2×10^6/mL in AIM V media supplemented with 50 μg/mL gentamicin (ThermoFisher Scientific) and 1% HEPES. […] Cells were cultured for 10 days at 37° C., 5% CO2. On day 3 and 7, half the culture media was replaced with fresh culture media containing 100 IU/mL IL-2, 50 ng/mL IL-7, and 50 ng/mL IL-15 (day 3) and 200 IU/mL IL-2, 50 ng/mL IL-7, and 50 ng/mL IL-15 (day 7). On day 10, thawed PBMCs from the same donor were used to generate a new batch of T cell-depleted cells.
# cytolytic T lymphocytes = conditions: MAGEA4-derived paMAPs; cited from earlier work
# iPSCs [3] = assay: MS-based identification of MHC I-associated peptides from iPSCs; design: species or system human; conditions: 40 ng/mL IFN-γ, 72 h
# Procedure: hiPSC22 cells derived from adult human skin fibroblasts using defective polycistronic retroviruses expressing OCT4, SOX2, KLF4, and c-MYC were obtained from Takara Bio (Cellartis human iPS cell line 22). hiPSC22 cells were cultured in the Cellartis® DEF-CS™ 500 Basal Medium with Additives (Takara Bio) on coated (Cellartis DEF-CS 500 COAT-1, Takara Bio) cell culture vessels according to the manufacturer's instructions. Fibro-iPSC.1 and Fibro-iPSC.2 cells are biological replicates of the same iPS cell line reprogrammed from adult human dermal fibroblasts using lentiviruses expressing OCT4, SOX2, NANOG, and LIN28, as per (Hong et al., 2011), and were provided by Dr. Mick Bathia (McMaster University, Ontario, Canada). Fibro-iPSC.1 and Fibro-iPSC.2 were cultured on Matrigel® (Corning, diluted in DMEM/F-12 from Gibco)-coated cell culture vessels in mTeSR1 medium ([…]), according to the manufacturer's instructions. All iPSCs were passaged using the Gentle Cell Dissociation Reagent ([…]) or were dissociated to single cells using TrypLE Express (Gibco) and washed with DPBS (Gibco) for downstream analyses. After removing 3-5×10^6 iPSCs for RNA-seq and 5×10^6 cells for flow cytometry, iPSCs were pelleted and stored at −80 degrees C. until MS analysis. […]
# iPSCs [4] = assay: Flow cytometry of surface HLA-A,B,C (QIFIKIT) and pluripotency markers on IFN-γ-treated iPSCs; format: cell-based, human; conditions: 40 ng/mL IFN-γ, 72 h
# Procedure: hiPSC22 cells derived from adult human skin fibroblasts using defective polycistronic retroviruses expressing OCT4, SOX2, KLF4, and c-MYC were obtained from Takara Bio (Cellartis human iPS cell line 22). hiPSC22 cells were cultured in the Cellartis® DEF-CS™ 500 Basal Medium with Additives (Takara Bio) on coated (Cellartis DEF-CS 500 COAT-1, Takara Bio) cell culture vessels according to the manufacturer's instructions. Fibro-iPSC.1 and Fibro-iPSC.2 cells are biological replicates of the same iPS cell line reprogrammed from adult human dermal fibroblasts using lentiviruses expressing OCT4, SOX2, NANOG, and LIN28, as per (Hong et al., 2011), and were provided by Dr. Mick Bathia (McMaster University, Ontario, Canada). […]
# Single-cell suspensions were stained with PerCP-Cy5.5 Mouse anti-Oct3/4, PE Mouse anti-SSEA-1, Alexa Fluor 647 Mouse anti-SSEA-4 antibodies or the respective isotypes (Human and Mouse Pluripotent Stem Cell Analysis Kit, BD Biosciences), APC/Cyanine7 anti-human/mouse SSEA-3 (BioLegend) or the APC-Cy™7 Rat IgM, K Isotype Control (BD Biosciences) according to the manufacturers' instructions. Surface HLA-A,B,C molecules were quantified using a QIFIKIT (FITC conjugate, Agilent Dako) as per the manufacturer's instructions. Flow cytometry experiments were performed on a ZE5 (Bio-Rad), and data were analyzed using the FlowJo software. […]
substance,measurement,setting,value
ALYPQPPTV (listed as Homo sapiens) [paMAP],Number of TCRβ clonotypes specifically expanded,CD8+ T cells [1],two to four
same,TCRß clonotype (TCRß CDR3 sequence) amplified,CD8+ T cells [1]; listed as pa_11,CASSYRTGSAEAFF (SEQ ID NO: 77); also recorded: CASSLGGAYEQYF (SEQ ID NO: 78); also recorded: CASSYPQGGEQFF (SEQ ID NO: 79); also recorded: CATSRGTGVNTEAFF (SEQ ID NO: 80)
FLLPGVLLSEA (listed as Homo sapiens) [previously reported saMAP from UGT3A2],T-cell response (immunogenicity) by peptide-HLA tetramer staining,CD8+ T cells [2],immunogenic in one donor
GVYDGREHTV (listed as Homo sapiens) [previously reported paMAP derived from MAGEA4],Immunogenic in previous studies,cytolytic T lymphocytes,immunogenic in previous studies
IFN-γ: recombinant human IFN-γ (Gibco) used to raise MHC I on iPSCs,More unique MAPs detected than for untreated iPSCs,iPSCs [3],1.8-4.5 fold
same,Increase in surface HLA-A/B/C levels,iPSCs [4]; average of three fibroblast-derived iPSC samples,34 fold
same,Expression of canonical pluripotency markers,iPSCs [4]; iPSCs,without affecting the expression of canonical pluripotency markers
KLAQIIRQV (listed as Homo sapiens) [paMAP],T-cell response (immunogenicity) by peptide-HLA tetramer staining,CD8+ T cells [2],one out of four donors
KVLEHVVRV (listed as Homo sapiens) [previously reported paMAP derived from MAGEA4],Immunogenic in previous studies,cytolytic T lymphocytes,immunogenic in previous studies
LPMWKALLF (listed as Homo sapiens) [paMAP],Number of TCRβ clonotypes specifically expanded,CD8+ T cells [1],two to four
same,TCRß clonotype (TCRß CDR3 sequence) amplified,CD8+ T cells [1]; listed as pa_06,CASSGPGDQPQHF (SEQ ID NO: 83); also recorded: CASSEWGSRAGGGDTQYF (SEQ ID NO: 84)
SLLGSSEILEV (listed as Homo sapiens) [paMAP],Number of TCRβ clonotypes specifically expanded,CD8+ T cells [1],two to four
same,TCRß clonotype (TCRß CDR3 sequence) amplified,CD8+ T cells [1]; listed as pa_12,CASSSRTDTYSPLHF (SEQ ID NO: 81); also recorded: CASSLGRWNSPLHF (SEQ ID NO: 82)
same,T-cell response (immunogenicity) by peptide-HLA tetramer staining,CD8+ T cells [2],one out of four donors
VTLSTYFHV (listed as Homo sapiens) [paMAP],Number of TCRβ clonotypes specifically expanded,CD8+ T cells [1],two to four
same,TCRß clonotype (TCRß CDR3 sequence) amplified,CD8+ T cells [1]; listed as pa_10,CASSKWGSYGYTF (SEQ ID NO: 75); also recorded: CASSLPDTTYEQYF (SEQ ID NO: 76)
